Measured values taken from the supplement of paper PMC4862054.

How the values were obtained:
Conditions in all cases: incubation time: 72 h
CAL-85-1 [1] = assay: normalised response (% of control), CellTox Green; higher = less cell death (100 = DMSO, 0 = benzethonium chloride kill control)
In short: (§1)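 Plates were normalised with 0.1 % DMSO as 100 and a positive kill control as 0. Breast cancer cell lines in 20 µl suspension had been seeded into 384-well plates with compound at 5 concentrations in 10-fold steps over a compound-specific 10,000-fold range, incubated 72 h, and read for CellTox Green fluorescence (485/520 nm) followed by CellTiter-Glo luminescence. Each value is the normalised signal at a single concentration.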

BT-474 [2] = assay: as above
In short: as §1

MDA-MB-231 [3] = assay: as above
In short: as §1

HDQ-P1 [4] = assay: as above
In short: as §1

MFM-223 [5] = assay: as above
In short: as §1

CAL-51 [6] = assay: as above
In short: as §1

MDA-MB-453 [7] = assay: as above
In short: as §1

CAL-148 [8] = assay: as above
In short: as §1

Hs578T [9] = assay: as above
In short: as §1

BT-549 [10] = assay: as above
In short: as §1

DU-4475 [11] = assay: as above
In short: as §1

CAL-120 [12] = assay: as above
In short: as §1

HCC1937 [13] = assay: as above
In short: as §1

MCF-10A [14] = assay: as above
In short: as §1

HCC1599 [15] = assay: as above
In short: as §1

HCC1143 [16] = assay: as above
In short: as §1

MDA-MB-468 [17] = assay: as above
In short: as §1

MDA-MB-436 [18] = assay: as above
In short: as §1

CAL-85-1 [19] = assay: normalised response (% of control), CellTiter-Glo; higher = more viable cells (100 = DMSO, 0 = benzethonium chloride kill control)
Method: (§2)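 DSRT, 72 h incubation, CellTox Green / CellTiter-Glo readout. Signal is normalised to DMSO and benzethonium chloride controls. Value is the normalised response at the highest dose.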

BT-474 [20] = assay: as above
Method: as §2

MDA-MB-231 [21] = assay: as above
Method: as §2

HDQ-P1 [22] = assay: as above
Method: as §2

MFM-223 [23] = assay: as above
Method: as §2

CAL-51 [24] = assay: as above
Method: as §2

MDA-MB-453 [25] = assay: as above
Method: as §2

CAL-148 [26] = assay: as above
Method: as §2

Hs578T [27] = assay: as above
Method: as §2

BT-549 [28] = assay: as above
Method: as §2

DU-4475 [29] = assay: as above
Method: as §2

CAL-120 [30] = assay: as above
Method: as §2

HCC1937 [31] = assay: as above
Method: as §2

MCF-10A [32] = assay: as above
Method: as §2

HCC1599 [33] = assay: as above
Method: as §2

SK-BR-3 = assay: as above
Method: as §2

HCC1143 [34] = assay: as above
Method: as §2

MDA-MB-468 [35] = assay: as above
Method: as §2

MDA-MB-436 [36] = assay: as above
Method: as §2

CAL-85-1 [37] = assay: normalised viability (% of control), CellTiter-Blue; higher = more viable cells (about 100 = DMSO control)
Method: (§3)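 DSRT, CellTiter-Blue viability, 72 h incubation. Signal is normalised to DMSO and benzethonium chloride controls. Value is the normalised response at dose 6.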

HDQ-P1 [38] = assay: as above
Method: as §3

CAL-51 [39] = assay: as above
Method: as §3

MDA-MB-453 [40] = assay: as above
Method: as §3

CAL-148 [41] = assay: as above
Method: as §3

DU-4475 [42] = assay: as above
Method: as §3

Compound: COC(=O)c1ccc2c(c1)NC(=O)/C2=C(\Nc1ccc(N(C)C(=O)CN2CCN(C)CC2)cc1)c1ccccc1 [Nintedanib] (10000 nM)
- normalised response (CAL-85-1 [1]): 85.3%
- normalised response (BT-474 [2]): -15.7%
- normalised response (MDA-MB-231 [3]): -69.5%
- normalised response (HDQ-P1 [4]): 61.2%
- normalised response (MFM-223 [5]): 92.7%
- normalised response (CAL-51 [6]): -13%
- normalised response (MDA-MB-453 [7]): 99.7%
- normalised response (CAL-148 [8]): 79.6%
- normalised response (Hs578T [9]): 104%
- normalised response (BT-549 [10]): 27.7%
- normalised response (DU-4475 [11]): 96.7%
- normalised response (CAL-120 [12]): 77.8%
- normalised response (HCC1937 [13]): 14.2%
- normalised response (MCF-10A [14]): 31.4%
- normalised response (HCC1599 [15]): 99.9%
- normalised response (HCC1143 [16]): 87.2%
- normalised response (MDA-MB-468 [17]): 15.6%
- normalised response (MDA-MB-436 [18]): 42.1%
- normalised response (CAL-85-1 [19]): 87.7%
- normalised response (BT-474 [20]): 3.88%
- normalised response (MDA-MB-231 [21]): 1.73%
- normalised response (HDQ-P1 [22]): 40.1%
- normalised response (MFM-223 [23]): 50.6%
- normalised response (CAL-51 [24]): 2.78%
- normalised response (MDA-MB-453 [25]): 73.4%
- normalised response (CAL-148 [26]): 90.8%
- normalised response (Hs578T [27]): 82.3%
- normalised response (BT-549 [28]): 0.72%
- normalised response (DU-4475 [29]): 84.8%
- normalised response (CAL-120 [30]): 52.1%
- normalised response (HCC1937 [31]): 27.6%
- normalised response (MCF-10A [32]): 40.1%
- normalised response (HCC1599 [33]): 84%
- normalised response (SK-BR-3): 71%
- normalised response (HCC1143 [34]): 48%
- normalised response (MDA-MB-468 [35]): 4.97%
- normalised response (MDA-MB-436 [36]): 17.1%

Compound: O=C(Nc1cccnc1)N1CCC(Cc2cccc(Oc3ccc(C(F)(F)F)cn3)c2)CC1 [PF-3845] (300 nM)
- normalised viability (CAL-85-1 [37]): 93%
- normalised viability (HDQ-P1 [38]): 127%
- normalised viability (CAL-51 [39]): 97.9%
- normalised viability (MDA-MB-453 [40]): 98.4%
- normalised viability (CAL-148 [41]): 103%
- normalised viability (DU-4475 [42]): 95.4%

Compound: Cc1[nH]c2ccccc2c1CCNCc1ccc(/C=C/C(=O)NO)cc1 [Panobinostat] (30 nM)
- normalised viability (CAL-85-1 [37]): 42.8%
- normalised viability (HDQ-P1 [38]): 62.8%
- normalised viability (CAL-51 [39]): 68.8%
- normalised viability (MDA-MB-453 [40]): 3.77%
- normalised viability (CAL-148 [41]): 21.1%
- normalised viability (DU-4475 [42]): 27.3%

Compound: COc1cc2c(NC3CCN(C(C)C)CC3)nc(N3CCC(F)(F)CC3)nc2cc1OCCCN1CCCC1 [UNC0642] (10000 nM)
- normalised response (CAL-85-1 [1]): -18.1%
- normalised response (BT-474 [2]): -7.97%
- normalised response (MDA-MB-231 [3]): -38.7%
- normalised response (HDQ-P1 [4]): 93.1%
- normalised response (MFM-223 [5]): 81.9%
- normalised response (CAL-51 [6]): 113%
- normalised response (MDA-MB-453 [7]): 43.1%
- normalised response (CAL-148 [8]): 44.5%
- normalised response (Hs578T [9]): 122%
- normalised response (BT-549 [10]): 104%
- normalised response (DU-4475 [11]): 95.5%
- normalised response (CAL-120 [12]): 19.6%
- normalised response (HCC1937 [13]): 29.2%
- normalised response (MCF-10A [14]): 57%
- normalised response (HCC1599 [15]): 87.4%
- normalised response (HCC1143 [16]): 76.4%
- normalised response (MDA-MB-468 [17]): -31.3%
- normalised response (MDA-MB-436 [18]): 44%
- normalised response (CAL-85-1 [19]): 5.34%
- normalised response (BT-474 [20]): 33.3%
- normalised response (MDA-MB-231 [21]): 18.8%
- normalised response (HDQ-P1 [22]): 48.9%
- normalised response (MFM-223 [23]): 32.9%
- normalised response (CAL-51 [24]): 79%
- normalised response (MDA-MB-453 [25]): 5.97%
- normalised response (CAL-148 [26]): 32.4%
- normalised response (Hs578T [27]): 91.6%
- normalised response (BT-549 [28]): 56.3%
- normalised response (DU-4475 [29]): 76.3%
- normalised response (CAL-120 [30]): 60.9%
- normalised response (HCC1937 [31]): 56.7%
- normalised response (MCF-10A [32]): 40.9%
- normalised response (HCC1599 [33]): 94.2%
- normalised response (SK-BR-3): 29.6%
- normalised response (HCC1143 [34]): 70.4%
- normalised response (MDA-MB-468 [35]): 3.41%
- normalised response (MDA-MB-436 [36]): 19.1%
